Holding throughout (experiment): NCI anticancer screen, dose series, 48 h
Experiment [1] deals with NCI-H460 lung.
Experiment [2] has as its system NCI-H23 lung.
Experiment [3] relates to HCT-15 colon.
The subject of experiment [4] is UACC-257 melanoma.
Experiment [5] relates to SNB-19 CNS.
Experiment [6] relates to UO-31 renal.
For experiment [7], the system named is BT-549 breast.
Experiment [8] concerns UACC-62 melanoma.
Experiment [9] relates to HL-60(TB) leukemia.
Experiment [10] concerns SN12C renal.

Molecules are shown by their SMILES.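 Growth conditions: 96-well plates. Treatment: test compound, 48 hours, 5 concentrations. Analysis: linear interpolation between bracketing concentrations; unreached endpoints set to highest concentration. TGI marks complete inhibition of growth.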 Bounds are passed on as bounds.

Turning to `O=C(Nc1cccc(F)c1)c1cc2ccc(O)cc2oc1=Nc1ccccc1F`, the TGI in experiment [1] is over 100 µM; in experiment [2], 5.86 µM; in experiment [3] it was 13.8 µM; in experiment [4] it was 31.1 µM; in experiment [5], 21 µM; in experiment [6] it was 14.2 µM. Moreover, the TGI was found to be 8.61 µM in experiment [7], 24 µM in experiment [8], 7.48 µM in experiment [9] and 22.5 µM in experiment [10].

With `C[C@H]1C=C2[C@@H]3CC(C)(C(=O)O)CC[C@]3(C)CC[C@]2(C)[C@]2(C)CC[C@H]3C(C)(C)[C@@H](OC(=O)c4cccc5c(=O)c6ccccc6[nH]c45)CC[C@]3(C)[C@@H]12` (stereo not given in full), the TGI in [1], in [2], in experiment [3], in experiment [4], in [5] and in experiment [6] was over 100 µM in each case. Further, the TGI in experiment [7], in [8], in experiment [9] and in experiment [10] was over 100 µM each time.

Consider `COc1cc(C(c2ccc3c(c2)OCO3)N2C(=O)CCC2C(=O)O)cc(OC)c1OC` (stereo not given), for which the TGI in [1], in experiment [2], in experiment [3], in [4], in [5] and in experiment [6] was over 100 µM throughout. Besides, the TGI in experiment [7], in [8], in experiment [9] and in [10] was over 100 µM in each case.

In the case of `OC(c1ccc(-c2ccccc2)cc1)C(F)(F)c1nc2ccccc2o1` (stereo not given), the TGI in experiment [1], in experiment [2], in experiment [3], in experiment [4], in experiment [5] and in [6] was over 100 µM in each case. Further, the TGI in experiment [7] is over 100 µM; in [8], over 100 µM; in experiment [9] it was over 74.1 µM; in experiment [10], over 100 µM.

As for `CN(C)CCCN1c2ccccc2CCc2ccc([N+](=O)[O-])cc21`, the TGI in [1] was 42.3 µM; in [2] it was over 100 µM; in experiment [3] it was 57.7 µM; in experiment [4], 31.8 µM; in [5], over 100 µM; in [6], 76 µM. Besides, the TGI in [7] stood at 73.7 µM; in experiment [8], 33.3 µM; in experiment [9], 75.6 µM; in [10], 58 µM.

On to `CCOC(=O)CSc1nnc(C(Sc2nc(-c3ccccc3)c(-c3ccccc3)[nH]2)C(C)C)n1-c1ccccc1` (stereo not given), for which the TGI is over 31.6 µM in experiment [1]; over 10 µM in experiment [2]; over 31.6 µM in [3]; 19.3 µM in [4]; over 31.6 µM in experiment [5]; over 31.6 µM in experiment [6]. The TGI is 52.9 µM in experiment [7], over 10 µM in [8], over 31.6 µM in [9] and 26.1 µM in [10].

`Cc1ccc2c(=O)cc(-c3ccc(-c4ccccc4)s3)[nH]c2n1`: the TGI in experiment [1] is over 100 µM; in experiment [2], over 100 µM; in experiment [3], over 100 µM; in experiment [4] it was over 100 µM; in [5], over 100 µM; in experiment [6], 0.219 µM. The TGI in experiment [7], in experiment [8], in experiment [9] and in [10] was over 100 µM each time.

For `COc1ccc(C(=O)c2[nH]c(Nc3ccc(Cl)cc3)c(C(=S)Nc3ccccc3)c2N)cc1`, the TGI in [1], in [2], in experiment [3], in experiment [4], in experiment [5] and in [6] was over 100 µM each time. Also, the TGI in experiment [7], in experiment [8], in experiment [9] and in experiment [10] was over 100 µM throughout.

Regarding `CC[C@@H](/C=C\CCC(=O)C[C@H](O)CCC=C(C)C)O[Si](C(C)C)(C(C)C)C(C)C`, the TGI in experiment [1], in [2], in experiment [3], in [4], in experiment [5] and in experiment [6] was over 100 µM in each case. Also, the TGI in [7], in [8], in [9] and in experiment [10] was over 100 µM throughout.

Consider `Cc1ccc(/C=C2\CCCC(CN3CCCCC3)C2=O)cc1` (stereo not given), for which the TGI in experiment [1] was 15.9 µM; in experiment [2], 4.86 µM; in experiment [3] it was 4.3 µM; in experiment [4], 4.02 µM; in [5] it was 29.6 µM; in [6], 3.58 µM. Moreover, the TGI in [7] was 4.84 µM; in experiment [8], 16.4 µM; in experiment [9], over 100 µM; in experiment [10], 8.4 µM.

On to `CC(C)[C@@H]1ON1C(C)c1ccccc1` (stereo not given in full), for which the TGI in [1], in experiment [2], in [3], in experiment [4], in experiment [5] and in [6] was over 100 µM in each case. Also, the TGI in experiment [7], in experiment [8], in experiment [9] and in [10] was over 100 µM in each case.

For `FC(F)(F)c1ccc2nc(Sc3ccccn3)cnc2c1`, the TGI was over 100 µM in [1]; 78.8 µM in [2]; over 100 µM in experiment [3]; over 100 µM in [4]; 86.8 µM in experiment [5]; over 100 µM in [6]. Besides, the TGI in [7] was 68.1 µM; in experiment [8], 88.3 µM; in [9], 31.7 µM; in [10] it was over 100 µM.

Consider `CCOP(=O)(OCC)C(C)(CC)NC` (stereo not given), for which the TGI in experiment [1], in experiment [2], in experiment [3], in experiment [4], in experiment [5] and in [6] was over 100 µM in each case. Besides, the TGI in experiment [7], in [8], in experiment [9] and in experiment [10] was over 100 µM each time.

Values taken from PubChem BioAssay (NCI).
